Experiment [1] addresses T1, 5-hydroxytryptamine receptor 1A (Rattus norvegicus) (UniProt P19327).
T1 sequence (whole entry): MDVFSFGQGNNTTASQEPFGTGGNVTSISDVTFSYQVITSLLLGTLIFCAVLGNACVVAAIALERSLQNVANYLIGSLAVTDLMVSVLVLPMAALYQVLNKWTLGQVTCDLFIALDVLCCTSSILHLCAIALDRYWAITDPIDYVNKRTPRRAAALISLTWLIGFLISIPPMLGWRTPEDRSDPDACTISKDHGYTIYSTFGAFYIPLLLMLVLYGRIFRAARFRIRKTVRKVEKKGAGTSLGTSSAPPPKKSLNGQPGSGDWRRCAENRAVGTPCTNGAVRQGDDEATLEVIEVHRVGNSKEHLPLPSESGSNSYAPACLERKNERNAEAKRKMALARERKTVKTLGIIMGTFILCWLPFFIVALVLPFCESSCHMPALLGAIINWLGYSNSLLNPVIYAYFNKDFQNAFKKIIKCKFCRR
In words: Displacement of [3H]8-OH-DPAT from rat hippocampus 5-HT1A receptor assessed as total radioligand binding at 1.66 x 10^-7 M incubated for 20 mins by microbeta plate reader based method. For orientation: Displacement assays read how much labelled ligand stays bound in the presence of the test substance.

The target in experiment [2] is D(3) dopamine receptor (Homo sapiens) (UniProt P35462). In words: Displacement of [3H]N-methylspiperone from dopamine D3 receptor (unknown origin) assessed as total radioligand binding at 1 uM incubated for 60 mins by microbeta plate reader based method.
D(3) dopamine receptor (Homo sapiens), sequence (P35462 whole entry): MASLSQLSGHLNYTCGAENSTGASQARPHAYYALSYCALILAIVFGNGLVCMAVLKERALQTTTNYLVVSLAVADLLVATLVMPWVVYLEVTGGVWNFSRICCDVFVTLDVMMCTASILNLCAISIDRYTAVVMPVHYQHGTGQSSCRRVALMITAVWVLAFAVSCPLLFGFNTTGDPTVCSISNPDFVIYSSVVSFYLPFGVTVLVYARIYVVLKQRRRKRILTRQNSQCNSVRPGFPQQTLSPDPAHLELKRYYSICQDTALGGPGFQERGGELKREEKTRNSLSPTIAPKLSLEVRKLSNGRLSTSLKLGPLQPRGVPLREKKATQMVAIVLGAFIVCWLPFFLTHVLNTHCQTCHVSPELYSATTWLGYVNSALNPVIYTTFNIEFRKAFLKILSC
Experiment [3] addresses T1, 5-hydroxytryptamine receptor 1A (Rattus norvegicus). The experiment is described as follows: Displacement of [3H]8-OH-DPAT from rat hippocampus 5-HT1A receptor assessed as total radioligand binding at 1 uM incubated for 20 mins by microbeta plate reader based method.
The target in experiment [4] is T2, 5-hydroxytryptamine receptor 6 (Homo sapiens, UniProt P50406). The experiment is described as follows: Displacement of [3H]LSD from human recombinant 5-HT6 receptor expressed in HEK293 cells assessed as total radioligand binding at 1 uM incubated for 60 mins by microbeta plate reader based method. In kind it is cell-based.
T2 sequence (P50406 whole entry): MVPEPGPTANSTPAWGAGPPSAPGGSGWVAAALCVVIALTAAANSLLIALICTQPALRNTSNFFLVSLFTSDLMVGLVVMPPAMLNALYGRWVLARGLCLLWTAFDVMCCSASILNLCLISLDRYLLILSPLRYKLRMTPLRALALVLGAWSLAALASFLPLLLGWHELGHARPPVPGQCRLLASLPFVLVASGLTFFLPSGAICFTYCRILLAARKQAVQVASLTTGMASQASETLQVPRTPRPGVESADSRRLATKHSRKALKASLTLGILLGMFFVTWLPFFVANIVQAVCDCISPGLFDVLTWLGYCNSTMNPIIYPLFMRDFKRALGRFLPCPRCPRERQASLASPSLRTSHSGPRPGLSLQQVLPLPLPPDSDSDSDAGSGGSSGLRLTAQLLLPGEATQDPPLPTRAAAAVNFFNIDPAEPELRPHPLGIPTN
Experiment [5] addresses T2, 5-hydroxytryptamine receptor 6. The experiment is described as follows: Displacement of [3H]LSD from human recombinant 5-HT6 receptor expressed in HEK293 cells assessed as total radioligand binding at 1.66 x 10^-7 M incubated for 60 mins by microbeta plate reader based method. It is filed as cell-based.
The target of experiment [6] is D(3) dopamine receptor (Homo sapiens) (UniProt P35462). The experiment is described as follows: Displacement of [3H]N-methylspiperone from dopamine D3 receptor (unknown origin) assessed as total radioligand binding at 1.66 x 10^-7 M incubated for 60 mins by microbeta plate reader based method.
Experiment [7] is described as follows: Selectivity index, ratio of Ki for rat hippocampus 5-HT1A receptor to Ki for human recombinant 5-HT7 receptor.
The next experiment addresses D(2) dopamine receptor (Homo sapiens, UniProt P14416). The experiment is described as follows: Displacement of [3H]N-methylspiperone from human recombinant dopamine D2 receptor expressed in CHOK1 cells incubated for 60 mins by microbeta plate reader based method. In kind it is cell-based, CHO-K1.
In experiment [8] the target is T3, 5-hydroxytryptamine receptor 1A (Rattus norvegicus, UniProt P19327).
T3 sequence (P19327 whole entry): T1 sequence (whole entry)
In words: Displacement of [3H]8-OH-DPAT from rat hippocampus 5-HT1A receptor incubated for 20 mins by microbeta plate reader based method.

The target of experiment [9] is T2, 5-hydroxytryptamine receptor 6. The experiment is described as follows: Displacement of [3H]LSD from human recombinant 5-HT6 receptor expressed in HEK293 cells incubated for 60 mins by microbeta plate reader based method. It is filed as cell-based.
The target of experiment [10] is 5-hydroxytryptamine receptor 7 (Homo sapiens, UniProt P34969). The experiment is described as follows: Displacement of [3H]LSD from human recombinant 5-HT7 receptor expressed in CHOK1 cells incubated for 60 mins by microbeta plate reader based method. In kind it is cell-based, CHO-K1.
5-hydroxytryptamine receptor 7, sequence (P34969 whole entry): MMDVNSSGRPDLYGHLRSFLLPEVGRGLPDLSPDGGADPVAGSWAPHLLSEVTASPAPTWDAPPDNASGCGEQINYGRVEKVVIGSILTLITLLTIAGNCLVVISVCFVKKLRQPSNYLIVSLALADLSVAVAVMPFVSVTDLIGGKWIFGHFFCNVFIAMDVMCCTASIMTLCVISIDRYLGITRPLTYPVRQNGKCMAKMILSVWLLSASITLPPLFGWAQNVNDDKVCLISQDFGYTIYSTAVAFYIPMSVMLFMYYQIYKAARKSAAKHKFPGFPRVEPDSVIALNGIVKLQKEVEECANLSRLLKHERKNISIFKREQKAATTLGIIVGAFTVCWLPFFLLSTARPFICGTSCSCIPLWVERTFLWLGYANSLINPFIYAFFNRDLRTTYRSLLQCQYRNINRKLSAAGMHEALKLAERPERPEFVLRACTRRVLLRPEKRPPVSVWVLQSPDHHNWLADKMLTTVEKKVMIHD
The test system of experiment [11] is Mus musculus. In words: Anxiolytic-like activity in Swiss mouse assessed as increase in number of punished crossings measured during 60 seconds period at 2.5 mg/kg, ip by four-plate test. The conditions noted are these: route intraperitoneal. In kind it is functional.
Experiment [12] relates to Mus musculus. In words: Anxiolytic-like activity in Swiss mouse assessed as increase in number of punished crossings measured during 60 seconds period at 5 mg/kg, ip by four-plate test. Particulars: route intraperitoneal. It is filed as functional.

D(2) dopamine receptor, sequence (P14416 whole entry): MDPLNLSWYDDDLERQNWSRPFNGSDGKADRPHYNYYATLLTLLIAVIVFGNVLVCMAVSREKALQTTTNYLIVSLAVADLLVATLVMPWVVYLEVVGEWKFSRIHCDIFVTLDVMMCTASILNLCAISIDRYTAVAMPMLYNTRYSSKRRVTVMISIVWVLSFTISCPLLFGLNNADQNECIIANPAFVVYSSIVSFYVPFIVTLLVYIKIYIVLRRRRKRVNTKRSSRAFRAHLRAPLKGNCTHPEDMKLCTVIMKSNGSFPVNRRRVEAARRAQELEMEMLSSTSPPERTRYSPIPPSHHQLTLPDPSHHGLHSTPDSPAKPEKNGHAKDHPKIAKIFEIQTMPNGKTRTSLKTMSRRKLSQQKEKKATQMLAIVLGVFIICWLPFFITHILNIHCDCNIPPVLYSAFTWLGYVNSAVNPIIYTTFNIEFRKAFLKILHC

`Cc1cn2c3c(=O)n(C)c(=O)n(C)c3nc2n1CCCCN1CCN(c2ccc(Cl)c(Cl)c2)CC1`: the Activity turned out to be 74% in experiment [1]; 64% in [2]; 13% in experiment [3]; 46% in experiment [4]; 110% in [5]; 90% in experiment [6].
In general, Ki refers to a measure of affinity in units of concentration, obtained from inhibition or displacement. Take `Cn1c(=O)c2c(nc3n(CCCCCN4CCN(c5ccc(Cl)cc5)CC4)ccn23)n(C)c1=O`: in experiment [7], the Ratio Ki worked out at 0.02. Moreover, the Ki was 259 nM at D(2) dopamine receptor, 73 nM in experiment [8], 1590 nM in [9] and 3640 nM in experiment [10].
With `Cc1cn2c3c(=O)n(C)c(=O)n(C)c3nc2n1CCCCN1CCN(c2ccccc2O)CC1`, the Activity was 44% in experiment [1]; 67% in experiment [2]; 8% in experiment [3]; 90% in experiment [4]; 90% in experiment [5]; 86% in experiment [6]. Further, in experiment [7], the Ratio Ki was 0.003. Moreover, the figures for the Ki (at D(2) dopamine receptor; in experiment [8]; in experiment [10]) were 430 nM, 2 nM and 510 nM, respectively.
With `CC[C@@H](CO)NC(=O)[C@@H]1C=C2c3cccc4c3c(cn4C)C[C@H]2N(C)C1`, the Activity in experiment [1] was 18%; in experiment [3], 11%.
As for `Cn1c(=O)c2c(nc3n(CCCCN4CCN(c5ccc(Cl)cc5)CC4)c(-c4ccccc4)cn23)n(C)c1=O`, the Ratio Ki in [7] came to 1.2. Besides, the Ki at D(2) dopamine receptor was 23 nM; in [8], 46 nM; in experiment [9] it was 447 nM; in [10] it was 37 nM.
Take `Cc1cn2c3c(=O)n(C)c(=O)n(C)c3nc2n1CCCCN1CCN(c2ccc(Cl)cc2)CC1`: in [7], the Ratio Ki was found to be 0.1. For the same molecule, the Ki at D(2) dopamine receptor was found to be 123 nM; in experiment [8] it was 38 nM; in experiment [9], 1460 nM; in experiment [10], 361 nM.
For `Cc1cccc(N2CCN(CCCCn3c(=O)ccn4c5c(=O)n(C)c(=O)n(C)c5nc34)CC2)c1C`, the Activity came to 85% in experiment [1]; 73% in [2]; 42% in [3]; 94% in [4]; 100% in [5]; 100% in experiment [6].
For the molecule `Cn1c(=O)c2c(nc3n(CCCCN4CCN(c5ccccc5O)CC4)ccn23)n(C)c1=O`, the Activity in experiment [1] came to 40%; in [2], 69%; in experiment [3], 7%; in [4], 90%; in [5] it was 99%; in experiment [6] it was 67%. The Ratio Ki in experiment [7] was found to be 0.002. The Ki at D(2) dopamine receptor is 700 nM; in experiment [8], 2 nM; in [10], 1360 nM.
For `Cn1c(=O)c2c(nc3n(CCCCCN4CCN(c5ccccc5O)CC4)ccn23)n(C)c1=O`, the Activity in experiment [1] stood at 57%; in [2] it was 3%; in [3] it was 0%; in experiment [4] it was 67%; in experiment [5] it was 76%; in [6] it was 69%. In addition, the Ratio Ki in experiment [7] was 0.03. Besides, the Ki on D(2) dopamine receptor amounted to 265 nM; in [8] it was 7 nM; in [10] it was 230 nM.
On to `Cc1cccc(N2CCN(CCCCn3ccn4c5c(=O)n(C)c(=O)n(C)c5nc34)CC2)c1C`, for which the Activity in experiment [1] is 48%; in [2], 13%; in experiment [3] it was 9%; in experiment [4], 62%; in [5], 91%; in experiment [6] it was 47%.
As to `Cn1c(=O)c2c(nc3n(CCCCCN4CCN(c5ccc(Cl)c(Cl)c5)CC4)c(=O)ccn23)n(C)c1=O`, the Activity in experiment [1] turned out to be 86%; in experiment [2], 61%; in experiment [3], 52%; in experiment [4], 79%; in experiment [5] it was 100%; in [6], 96%.
With `CSc1ccc2c(c1)C(N1CCN(C)CC1)Cc1ccccc1S2` (stereo not given), the Activity worked out at 1% in experiment [4] and 3% in experiment [5].
`Cc1cn2c3c(=O)n(C)c(=O)n(C)c3nc2n1CCCCCN1CCN(c2ccccc2O)CC1`: the Activity in experiment [1] is 52%; in experiment [2] it was 71%; in [3], 0%; in experiment [4], 77%; in experiment [5] it was 84%; in [6], 85%. Further, the Ratio Ki in experiment [7] came to 0.1. The Ki was 468 nM on D(2) dopamine receptor, 12 nM in [8] and 124 nM in experiment [10].
In the case of `Cn1c(=O)c2c(nc3n(CCCCCN4CCN(c5ccccc5O)CC4)c(=O)ccn23)n(C)c1=O`, the Activity came to 46% in experiment [2] and 67% in experiment [6]. Also, the inhibition constant Ki on D(2) dopamine receptor is 340 nM; in [8], 2 nM; in [9], > 1000 nM; in experiment [10], 473 nM.
Regarding `Cn1c(=O)c2c(nc3n(CCCCN4CCN(c5ccccc5O)CC4)c(=O)ccn23)n(C)c1=O`, the Activity in experiment [1] came to 97%; in experiment [2] it was 26%; in [3], 79%; in [4] it was 100%; in experiment [5], 100%; in [6], 84%.
For the molecule `Cn1c(=O)c2c(nc3n(CCCCCN4CCN(c5ccc(Cl)c(Cl)c5)CC4)ccn23)n(C)c1=O`, the Activity in experiment [1] amounted to 78%; in experiment [2], 16%; in experiment [3], 3%; in experiment [4] it was 62%; in experiment [5] it was 90%; in experiment [6] it was 67%.
Consider `Cn1c(=O)c2c(nc3n(CCCCN4CCN(c5ccc(Cl)c(Cl)c5)CC4)ccn23)n(C)c1=O`, for which the Activity was 51% in [1]; 0% in [2]; 9% in experiment [3]; 67% in [4]; 91% in experiment [5]; 31% in [6].
On to `CN1C(=O)CN=C(c2ccccc2)c2cc(Cl)ccc21` [DIAZEPAM], for which the Activity in the experiment with Mus musculus [11] was found to be 52%; in the experiment on Mus musculus [12], 57%.
Turning to `Cn1c(=O)c2c(nc3n(CCCCN4CCN(c5ccc(Cl)c(Cl)c5)CC4)c(=O)ccn23)n(C)c1=O`, the Activity in experiment [1] stood at 97%; in [2], 98%; in [3], 84%; in experiment [4], 67%; in experiment [5], 100%; in [6] it was 99%.
Consider `Cn1c(=O)c2c(nc3n(CCCCCN4CCN(c5ccc(Cl)cc5)CC4)c(=O)ccn23)n(C)c1=O`, for which the Activity was 92% in experiment [2] and 99% in experiment [6]. In addition, the Ki on D(2) dopamine receptor is 215 nM; in [8], 80 nM; in experiment [9], 839 nM; in [10] it was > 1000 nM.
Consider `Cc1cn2c3c(=O)n(C)c(=O)n(C)c3nc2n1CCCCCN1CCN(c2ccc(Cl)cc2)CC1`, for which the Ratio Ki in experiment [7] was found to be 0.09. Besides, the Ki on D(2) dopamine receptor was determined as 106 nM; in [8], 62 nM; in experiment [9] it was 837 nM; in experiment [10], 691 nM.
Consider `Cn1c(=O)c2c(nc3n(CCCCN4CCN(c5ccc(Cl)cc5)CC4)c(=O)ccn23)n(C)c1=O`, for which the Activity turned out to be 52% in experiment [2] and 96% in experiment [6]. Besides, the Ki at D(2) dopamine receptor is 68 nM; in experiment [8], 58 nM; in experiment [9], 86 nM; in [10] it was 61 nM.
In the case of `Cc1cccc(N2CCN(CCCCCn3c(=O)ccn4c5c(=O)n(C)c(=O)n(C)c5nc34)CC2)c1C`, the Activity in [1] was 88%; in experiment [2], 67%; in experiment [3], 50%; in [4] it was 59%; in [5] it was 85%; in experiment [6], 83%.
As for `Cc1cc2c(s1)Nc1ccccc1N=C2N1CCN(C)CC1`, the Activity worked out at 10% in [2] and 24% in experiment [6].

The values above are taken from ChEMBL document CHEMBL3421538, “Structure-activity relationships and molecular studies of novel arylpiperazinylalkyl purine-2,4-diones and purine-2,4,8-triones with antidepressant and anxiolytic-like activity” (Eur J Med Chem, 2015).
